Data taken from US10694743B2, “Agricultural compositions with reduced aquatic toxicity” (priority 2014, dated 2020).
“Also recorded” adds a separate entry of the source.

Assays:
Daphnia magna = assay: Aquatic toxicity screen, Daphnia sp. Acute Immobilization Test (OECD 202 / OPPTS 850.1010); details: for 48-Hour EC50: 48-hour exposure, static test conditions
Protocol: The study is performed based on procedures in the OECD Guidelines for Testing of Chemicals, Guideline 202: Daphnia sp., Acute Immobilization Test, and U.S. EPA Guidelines, OPPTS Number 850.1010: Aquatic Invertebrate Acute Toxicity Test. The half maximal effective concentration (EC50) after 48 hours is reported below.

[1] = system: common lambsquarters (CHEAL); assay: Agricultural field test of glyphosate with adjuvant, visual weed control; type: in vivo, Chenopodium album; details: for CHEAL control relative to the control: 8 and 14 DAT; for CHEAL control relative to Roundup Powermax / CHEAL 22 DAT, %: 22 DAT; for CHEAL 14 DAT, % / CHEAL 22 DAT, % / CHEAL 8 DAT, %: visual weed control, glyphosate 480 g.a.e./ha; for CHEAL 14 DAT, % / CHEAL 22 DAT, %: 0-100; for CHEAL 8 DAT, %: 0=no effect to 100=complete kill, 160 g adjuvant per 540 g.a.e.
Protocol: (§1) Amine ethoxylates are evaluated as adjuvants for glyphosate formulations in agricultural field tests performed by an independent laboratory. The weed species included in the evaluation are common lambsquarters (CHEAL), barnyard grass (ECHCG), and wild oat (AVEFA).
(§2) Two field trials are conducted in the Netherlands during the summer. In the first trial, common lambsquarters (CHEAL, Chenopodium album), barnyard grass (ECHCG, Echinochloa crus-galls) and wild oat (AVEFA, Avena fatua) are sown in three distinct zones of the same size in a 4×2 m field plot. Other emerging weed species are removed by hand as needed. Five weeks after sowing, the plots are treated and weed control is visually assessed 8, 14, and 22 days after treatment (DAT). Visual assessment is used with a scale of 0=no effect to 100=complete kill. Growth reduction is included in this assessment. On the day of treatment, ECHCG has more than six leaves, and CHEAL has at least six unfolded leaves. A second test with AVEFA alone is conducted because the level of emergence was too low in the first test. (Results from the first AVEFA testing are not included.) AVEFA is at the 3-leaf stage on the day of treatment. The plots are visually evaluated 9 and 23 days after treatment.
(§3) A glyphosate potassium solution (540 g.a.e./L) without surfactants or other adjuvant chemicals is used to prepare solutions that contain the adjuvants listed in Table 2A. Roundup® Powermax® (540 g.a.e./L, product of Monsanto) is used as a control. The glyphosate solutions are diluted with deionized water such that application at a water volume of 80 L/ha results in a glyphosate application rate of 480 g.a.e./ha. Adjuvants are included in the diluted glyphosate solution at a ratio of 160 g adjuvant per 540 g.a.e. glyphosate. In this way, commercial glyphosate products containing glyphosate at 540 g.a.e./L and adjuvant at 160 g/L are simulated.
(§4) Glyphosate solutions are applied with a backpack sprayer having a TeeJet® TP8003E nozzle set to deliver 80 L/ha at 150 kPa. The application with the first trial started early in the morning in mid-summer. Conditions: sunny skies, relative humidity 80%, temperature 18° C., little or no wind, wet soil, damp foliage. Application of AVEFA trial starts in early autumn late in the afternoon. Conditions: partly cloudy, relative humidity 79%, temperature 15° C., little or no wind, wet soil, dry foliage.

barnyard grass (ECHCG) = assay: as above; type: in vivo, Echinochloa crus-galls; details: for ECHCG control relative to Roundup Powermax / ECHCG 22 DAT, %: 22 DAT; for ECHCG 8 DAT, % / ECHCG 14 DAT, % / ECHCG 22 DAT, %: visual weed control, 0-100, glyphosate 480 g.a.e./ha
Protocol: as §1, §2, §3, §4

wild oat (AVEFA) = assay: Agricultural field test of glyphosate with adjuvant, visual weed control (second trial); type: in vivo, Avena fatua; details: glyphosate 480 g.a.e./ha; for AVEFA 9 DAT, %: 0-100, 9 DAT; for AVEFA 23 DAT, %: 0-100, 23 DAT
Protocol: as §1, §2, §3, §4

[2] = system: common lambsquarters (CHEAL), barnyard grass (ECHCG), and wild oat (AVEFA); assay: Agricultural field testing, overall performance over the weed species; type: in vivo; details: all weed species, glyphosate 480 g.a.e./ha
Protocol: as §1
as §2, with “after treatment. […]” for “after treatment.”

unsaturated C11 fatty amine 5EO ethoxylate [Unsaturated C11 amine 5 EO ethoxylate]
48-Hour EC50 (Daphnia magna): 20 mg/L

C11 saturated fatty amine 2EO ethoxylate [Comparative Agent D, reference compound]
CHEAL control relative to the control [1]: outperform the control | CHEAL control relative to Roundup Powermax [1]: same performance as Roundup Powermax | CHEAL 14 DAT, % [1]: 91.3% | CHEAL 22 DAT, % [1]: 92.5% | CHEAL 8 DAT, % [1]: 75.0% | ECHCG control relative to Roundup Powermax (barnyard grass (ECHCG)): outperform Roundup Powermax | ECHCG 8 DAT, % (barnyard grass (ECHCG)): 97.5% | ECHCG 14 DAT, % (barnyard grass (ECHCG)): 91.3% | ECHCG 22 DAT, % (barnyard grass (ECHCG)): 100% | AVEFA 9 DAT, % (wild oat (AVEFA)): 82.5% | AVEFA 23 DAT, % (wild oat (AVEFA)): 100%

C11 unsaturated fatty amine 2EO ethoxylate [Agent B]
CHEAL control relative to the control [1]: outperform the control | CHEAL control relative to Roundup Powermax [1]: same performance as Roundup Powermax | CHEAL 14 DAT, % [1]: 97.7% | CHEAL 22 DAT, % [1]: 96.7% | CHEAL 8 DAT, % [1]: 86.7% | ECHCG control relative to Roundup Powermax (barnyard grass (ECHCG)): outperform Roundup Powermax; also recorded: top performer | ECHCG 8 DAT, % (barnyard grass (ECHCG)): 100% | ECHCG 14 DAT, % (barnyard grass (ECHCG)): 97.7% | ECHCG 22 DAT, % (barnyard grass (ECHCG)): 100% | AVEFA 9 DAT, % (wild oat (AVEFA)): 87.5% | AVEFA 23 DAT, % (wild oat (AVEFA)): 100% | overall field performance as glyphosate adjuvant [2]: best overall performance of the group | overall field performance as glyphosate adjuvant ([2]; listed as C11 unsaturated 2EO ethoxylate): outperforms its saturated analog

saturated C11 fatty amine 5EO ethoxylate [Saturated C11 amine 5EO ethoxylate]
48-Hour EC50 (Daphnia magna): 3.3 mg/L | aquatic toxicity rating (Daphnia magna; in vivo): moderately toxic
